{"source": "ChEMBL document CHEMBL4602677", "about": "“Protective Effects of Compounds from Cimicifuga dahurica against Amyloid Beta Production in Vitro and Scopolamine-Induced Memory Impairment in Vivo” (J Nat Prod, 2020)", "key": {"[1]": {"test_system": "CHO", "experiment": "Inhibition of gamma secretase in CHO cells stably expressing amyloid precursor protein assessed as reduction in Abeta42 levels at 10 uM by ELISA relative to control", "type": "cell-based", "settings": "Cricetulus griseus"}, "[2]": {"experiment": "Inhibition of gamma secretase in CHO cells stably expressing amyloid precursor protein assessed as reduction in Abeta42 levels by ELISA", "type": "cell-based", "settings": "Cricetulus griseus"}, "[3]": {"experiment": "(§1) Inhibition of BACE1 in CHO cells stably expressing amyloid precursor protein assessed as reduction in sAPPbeta expression after 24 hrs by Western blot analysis", "type": "cell-based", "settings": "Cricetulus griseus"}, "[4]": {"test_system": "CHO", "experiment": "as §1", "type": "cell-based", "settings": "Cricetulus griseus"}, "[5]": {"experiment": "(§2) Inhibition of BACE1 in CHO cells stably expressing amyloid precursor protein after 24 hrs by Western blot analysis", "type": "cell-based, Cricetulus griseus"}, "[6]": {"test_system": "CHO", "experiment": "as §2", "type": "cell-based", "settings": "Cricetulus griseus"}, "[7]": {"test_system": "CHO", "experiment": "Cytotoxicity against CHO cells stably expressing amyloid precursor protein at 2.5 to 10 uM after 24 hrs by MTT assay", "type": "cell-based, Cricetulus griseus", "settings": "chinese hamster"}, "[8]": {"test_system": "CHO", "experiment": "Inhibition of BACE1 in CHO cells stably expressing amyloid precursor protein assessed as sAPPbeta level at 10 uM after 24 hrs by Western blot analysis relative to control", "type": "cell-based", "settings": "Cricetulus griseus"}, "[9]": {"test_system": "Mus musculus", "experiment": "Neuroprotective activity against scopolamine-induced memory impairment in ICR mouse assessed as increase in hippocampal phosphorylated ERK level at 2.5 to 5 mg/kg, po administered for 7 days by Western blot analysis", "type": "functional, organism-based"}, "[10]": {"test_system": "Mus musculus", "experiment": "Cognitive enhancing effect in ICR mouse model of scopolamine-Induced memory impairment assessed as escape latency time at 2.5 mg/kg, po administered for 7 days and measured after 60 mins at first day of training session by Morris water maze test (reference value: 84.5 +/- 4.6 secs)", "type": "functional"}, "[11]": {"test_system": "Mus musculus", "experiment": "Cognitive enhancing effect in ICR mouse model of scopolamine-Induced memory impairment assessed as escape latency time at 2.5 mg/kg, po administered for 7 days and measured after 60 mins at 5th day of training session by Morris water maze test (reference value: 77.5 +/- 6.6 secs)", "type": "functional"}, "[12]": {"test_system": "Mus musculus", "experiment": "Cognitive enhancing effect in ICR mouse model of scopolamine-Induced memory impairment assessed as escape latency time at 5 mg/kg, po administered for 7 days and measured after 60 mins at first day of training session by Morris water maze test (reference value: 84.5 +/- 4.6 secs)", "type": "functional"}, "[13]": {"test_system": "Mus musculus", "experiment": "Cognitive enhancing effect in ICR mouse model of scopolamine-Induced memory impairment assessed as escape latency time at 5 mg/kg, po administered for 7 days and measured after 60 mins at 5th day of training session by Morris water maze test (reference value: 77.5 +/- 6.6 secs)", "type": "functional"}, "[14]": {"test_system": "Mus musculus", "experiment": "Cognitive enhancing effect in po dosed ICR mouse model of scopolamine-Induced memory impairment assessed as increase in time spent in target quadrant administered for 7 days and measured on day 6 by Morris water maze test", "type": "functional, organism-based"}, "[15]": {"test_system": "Mus musculus", "experiment": "Cognitive enhancing effect in ICR mouse model of scopolamine-Induced memory impairment assessed as time spent in target quadrant at 1.25 mg/kg, po administered for 7 days and measured on day 6 by Morris water maze test (reference value: 14.48 +/- 1.6 secs)", "type": "functional"}, "[16]": {"test_system": "Mus musculus", "experiment": "Cognitive enhancing effect in ICR mouse model of scopolamine-Induced memory impairment assessed as time spent in target quadrant at 5 mg/kg, po administered for 7 days and measured on day 6 by Morris water maze test (reference value: 14.48 +/- 1.6 secs)", "type": "functional"}, "[17]": {"test_system": "Mus musculus", "experiment": "Cognitive enhancing effect in ICR mouse model of scopolamine-Induced memory impairment assessed as time spent in target quadrant at 2.5 mg/kg, po administered for 7 days and measured on day 6 by Morris water maze test (reference value: 14.48 +/- 1.6 secs)", "type": "functional"}, "[18]": {"test_system": "Mus musculus", "experiment": "Reversal of scopolamine-induced amnesic effect in ICR mouse assessed as step-through latecy time at 1.25 mg/kg, po administered for 7 days followed by scopolamine challenge 30 mins prior to test by passive avoidance test (reference value: 10.80 +/- 4.1 secs)", "type": "functional"}, "[19]": {"test_system": "Mus musculus", "experiment": "Reversal of scopolamine-induced amnesic effect in ICR mouse assessed as step-through latecy time at 2.5 mg/kg, po administered for 7 days followed by scopolamine challenge 30 mins prior to test by passive avoidance test (reference value: 10.80 +/- 4.1 secs)", "type": "functional"}, "[20]": {"test_system": "Mus musculus", "experiment": "Reversal of scopolamine-induced amnesic effect in ICR mouse assessed as step-through latecy time at 5 mg/kg, po administered for 7 days followed by scopolamine challenge 30 mins prior to test by passive avoidance test (reference value: 10.80 +/- 4.1 secs)", "type": "functional"}, "[21]": {"test_system": "Mus musculus", "experiment": "Cognitive enhancing effect in ICR mouse model of scopolamine-induced short-term memory impairment assessed as increase in spontaneous alteration at 5 mg/kg, po administered for 7 days followed by scopolamine challenge 30 mins prior to test by Y-maze test", "type": "functional"}, "[22]": {"test_system": "Mus musculus", "experiment": "Memory improvement effect in ICR mouse model of scopolamine-induced memory impairment assessed as discrimination index at 2.5 mg/kg, po administered for 7 days followed by scopolamine challenge 30 mins prior to test by object recognition test (reference value: 60.14 +/- 2.1%)", "type": "functional"}, "[23]": {"test_system": "Mus musculus", "experiment": "Memory improvement effect in ICR mouse model of scopolamine-induced memory impairment assessed as discrimination index at 5 mg/kg, po administered for 7 days followed by scopolamine challenge 30 mins prior to test by object recognition test (reference value: 60.14 +/- 2.1%)", "type": "functional"}, "[24]": {"test_system": "Mus musculus", "experiment": "Neuroprotective activity against scopolamine-induced memory impairment in ICR mouse assessed as increase in cortical phosphorylated CREB level at 1.25 to 2.5 mg/kg, po administered for 7 days by Western blot analysis", "type": "functional, organism-based"}, "[25]": {"test_system": "Mus musculus", "experiment": "Neuroprotective activity against scopolamine-induced memory impairment in ICR mouse assessed as increase in cortical phosphorylated AKT level at 5 mg/kg, po administered for 7 days by Western blot analysis", "type": "functional, organism-based"}, "[26]": {"test_system": "Mus musculus", "experiment": "Neuroprotective activity against scopolamine-induced memory impairment in ICR mouse assessed as increase in hippocampal phosphorylated CREB level at 5 mg/kg, po administered for 7 days by Western blot analysis", "type": "functional, organism-based"}, "[27]": {"test_system": "Mus musculus", "experiment": "Neuroprotective activity against scopolamine-induced memory impairment in ICR mouse assessed as increase in hippocampal phosphorylated AKT level at 2.5 to 5 mg/kg, po administered for 7 days by Western blot analysis", "type": "functional, organism-based"}, "[28]": {"test_system": "Mus musculus", "experiment": "Neuroprotective activity against scopolamine-induced memory impairment in ICR mouse assessed as increase in cortical phosphorylated ERK level at 1.25 to 5 mg/kg, po administered for 7 days by Western blot analysis", "type": "functional, organism-based"}, "[29]": {"test_system": "Mus musculus", "experiment": "Suppression of AChE in ICR mouse model of scopolamine-induced memory impairment assessed as reduction in protein activity in hippocampus at 5 mg/kg,po administered for 7 days by Ellman's method", "type": "functional, organism-based"}}, "note": "Activity calls are given as the source filed them. The calls are words filed in the database; no cut-off is given here.", "data": [{"molecule": "CC(=O)O[C@@H]1[C@H](O)[C@@H](O)[C@H](O[C@H]2CC[C@]34C[C@]35CC[C@]3(C)[C@H]6[C@H](C)C[C@H]([C@@H](OC(C)=O)C(C)(C)O)O[C@@]6(O)[C@H](O)[C@@]3(C)C5=CC[C@H]4C2(C)C)O[C@@H]1CO", "values": [{"measurement": "inhibition", "setting": "[1]", "result": 34.7, "unit": "%"}, {"measurement": "IC50", "setting": "[2]", "result": 14.4, "unit": "µM"}, {"measurement": "IC50", "setting": "[3]", "result": 8.3, "unit": "µM"}, {"measurement": "inhibition", "setting": "[4]", "result": "Dose-dependent effect"}, {"measurement": "IC50", "setting": "[5]", "result": 7.8, "unit": "µM"}, {"measurement": "inhibition", "setting": "[6]", "result": "Dose-dependent effect"}, {"measurement": "Activity", "setting": "[7]", "result": "Non-Toxic"}]}, {"molecule": "C[C@@H]1C[C@H]([C@@H](O)C(C)(C)O)O[C@H]2C(=O)[C@@]3(C)C4=C(CC[C@]3(C)[C@@H]12)C[C@]12CC[C@H](O1)C(C)(C)[C@@H]2CC4", "values": [{"measurement": "inhibition", "setting": "[1]", "result": 80.6, "unit": "%"}, {"measurement": "IC50", "setting": "[2]", "result": 6.2, "unit": "µM"}, {"measurement": "inhibition", "setting": "[8]", "result": 20, "unit": "%"}, {"measurement": "IC50", "setting": "[3]", "result": 4.3, "unit": "µM"}, {"measurement": "inhibition", "setting": "[4]", "result": "Dose-dependent effect"}, {"measurement": "IC50", "setting": "[5]", "result": 6.2, "unit": "µM"}, {"measurement": "inhibition", "setting": "[6]", "result": "Dose-dependent effect"}, {"measurement": "Activity", "setting": "[7]", "result": "Non-Toxic"}]}, {"molecule": "COC(C)(C)[C@H]1O[C@@]23O[C@@H]1C[C@@H](C)[C@@H]2[C@@]1(C)CC[C@@]24C[C@@]25CC[C@H](O[C@@H]2OC[C@@H](O)[C@H](O)[C@H]2O)C(C)(C)[C@@H]5CC=C4[C@]1(C)[C@H]3O", "values": [{"measurement": "inhibition", "setting": "[1]", "result": 48.9, "unit": "%"}, {"measurement": "IC50", "setting": "[2]", "result": 10.1, "unit": "µM"}, {"measurement": "inhibition", "setting": "[8]", "result": 20, "unit": "%"}, {"measurement": "IC50", "setting": "[3]", "result": 7.1, "unit": "µM"}, {"measurement": "inhibition", "setting": "[4]", "result": "Dose-dependent effect"}, {"measurement": "IC50", "setting": "[5]", "result": 8.1, "unit": "µM"}, {"measurement": "inhibition", "setting": "[6]", "result": "Dose-dependent effect"}, {"measurement": "Activity", "setting": "[7]", "result": "Non-Toxic"}]}, {"molecule": "CC(=O)O[C@H]([C@H]1C[C@@H](C)[C@H]2[C@@](O)(O1)[C@H](O)[C@@]1(C)C3=CC[C@H]4C(C)(C)[C@@H](O[C@@H]5OC[C@@H](O)[C@H](O)[C@H]5O)CC[C@@]45C[C@@]35CC[C@]21C)C(C)(C)O", "values": [{"measurement": "Activity", "setting": "[9]", "result": "Active"}, {"measurement": "inhibition", "setting": "[1]", "result": 61.7, "unit": "%"}, {"measurement": "IC50", "setting": "[2]", "result": 8.1, "unit": "µM"}, {"measurement": "inhibition", "setting": "[8]", "result": 20, "unit": "%"}, {"measurement": "IC50", "setting": "[3]", "result": 6.1, "unit": "µM"}, {"measurement": "inhibition", "setting": "[4]", "result": "Dose-dependent effect"}, {"measurement": "IC50", "setting": "[5]", "result": 7.1, "unit": "µM"}, {"measurement": "inhibition", "setting": "[6]", "result": "Dose-dependent effect"}, {"measurement": "Time", "setting": "[10]", "result": 80.7, "unit": "s"}, {"measurement": "Time", "setting": "[11]", "result": 49.4, "unit": "s"}, {"measurement": "Time", "setting": "[12]", "result": 76, "unit": "s"}, {"measurement": "Time", "setting": "[13]", "result": 48.1, "unit": "s"}, {"measurement": "Activity", "setting": "[14]", "result": "Dose-dependent effect"}, {"measurement": "Time", "setting": "[15]", "result": 18.43, "unit": "s"}, {"measurement": "Time", "setting": "[16]", "result": 25.86, "unit": "s"}, {"measurement": "Time", "setting": "[17]", "result": 20.4, "unit": "s"}, {"measurement": "Time", "setting": "[18]", "result": 14.5, "unit": "s"}, {"measurement": "Time", "setting": "[19]", "result": 28.8, "unit": "s"}, {"measurement": "Time", "setting": "[20]", "result": 46.9, "unit": "s"}, {"measurement": "Activity", "setting": "[21]", "result": 11.6, "unit": "%"}, {"measurement": "Activity", "setting": "[22]", "result": 64.29, "unit": "%"}, {"measurement": "Activity", "setting": "[23]", "result": 68, "unit": "%"}, {"measurement": "Activity", "setting": "[24]", "result": "Active"}, {"measurement": "Activity", "setting": "[25]", "result": "Active"}, {"measurement": "Activity", "setting": "[26]", "result": "Active"}, {"measurement": "Activity", "setting": "[27]", "result": "Active"}, {"measurement": "Activity", "setting": "[28]", "result": "Active"}, {"measurement": "Activity", "setting": "[29]", "result": "Active"}, {"measurement": "Activity", "setting": "[7]", "result": "Non-Toxic"}]}]}
